Numbers after ± are expanded uncertainties.
What was measured:
[1] = Molar enthalpy of transition or fusion; conditions: Crystal; DSC
[2] = molar enthalpy of vaporization or sublimation; conditions: 298.15 K; Crystal; Drop calorimetry
[3] = for vapor or sublimation pressure: Closed cell (Static) method

c1ccc2c(c1)-c1cccc3cccc-2c13 [fluoranthene]
Conditions | Molar enthalpy of transition or fusion [kcal/mol] | molar enthalpy [kcal/mol]
[1] | 4.63 ± 0.127 | –
[2] | – | 23 ± 0.669

[3]
Conditions | Normal melting temperature [°C] | vapor or sublimation pressure [kPa]
348.83 K, Crystal | – | 0.00042 ± 0.00012
351.82 K, Crystal | – | 0.00056 ± 0.00012
354.78 K, Liquid | – | 0.00117 ± 0.00013
354.79 K, Crystal | – | 0.00076 ± 0.00013
356.76 K, Liquid | – | 0.00137 ± 0.00013
357.77 K, Crystal | – | 0.00101 ± 0.00013
360.71 K, Liquid | – | 0.00185 ± 0.00014
360.73 K, Crystal | – | 0.0013 ± 0.00013
363.72 K, Crystal | – | 0.00171 ± 0.00014
366.68 K, Crystal | – | 0.00225 ± 0.00015
366.68 K, Liquid | – | 0.0029 ± 0.00017
368.53 K, Liquid | – | 0.0033 ± 0.00018
369.65 K, Crystal | – | 0.00292 ± 0.00017
370.63 K, Liquid | – | 0.00384 ± 0.0002
372.57 K, Liquid | – | 0.00438 ± 0.00021
372.62 K, Crystal | – | 0.00379 ± 0.0002
374.61 K, Liquid | – | 0.00509 ± 0.00024
375.59 K, Crystal | – | 0.00491 ± 0.00023
378.57 K, Liquid | – | 0.0067 ± 0.00029
382.51 K, Liquid | – | 0.00865 ± 0.00036
384.49 K, Liquid | – | 0.00979 ± 0.0004
386.46 K, Liquid | – | 0.01118 ± 0.00046
388.46 K, Liquid | – | 0.01265 ± 0.00051
390.43 K, Liquid | – | 0.01425 ± 0.00054
392.43 K, Liquid | – | 0.0161 ± 0.00057
394.39 K, Liquid | – | 0.0181 ± 0.0006
396.38 K, Liquid | – | 0.02041 ± 0.00063
398.36 K, Liquid | – | 0.02287 ± 0.00067
400.35 K, Liquid | – | 0.02578 ± 0.00071
402.34 K, Liquid | – | 0.02887 ± 0.00076
404.3 K, Liquid | – | 0.03224 ± 0.00081
Crystal, DTA | 109.69 ± 0.4 | –

From the NIST ThermoML archive (doi:10.1016/j.jct.2012.01.025)
